Measured values published in US11000574B2, “Hyaluronic acid containing compositions for prevention of the formation of post-surgical scars and post-surgical adhesions” (PERGAMUM AB, priority 2009, dated 2021).
Bridge positions count the residues as written; N and C are the ends. Peptide text beside a SMILES is read from it.

Tests used:
[1] = tested on: post-surgical intra-abdominal adhesions; assay: Sidewall defect-cecum abrasion model in rat (post-surgical adhesion prevention); format: in vivo, Sprague-Dawley rats; conditions: for adhesion formation compared with control group: rat, 6 days after surgery
Experimental: Female Sprague-Dawley rats (200-250 g, Charles River Laboratories, Sulzfeldt, Germany) were kept in a 12 hours light-dark cycle and were cared for in accordance with regulations for the protection of laboratory animals. The study was performed after prior approval from the local ethical committee.
Cecum abrasion and excision of the abdominal wall were performed to induce de novo adhesions as described previously (Harris et al. 1995. Analysis of the kinetics of peritoneal adhesion formation in the rat and evaluation of potential antiadhesive agents. Surgery 117, 663-669). Briefly, the rats were anaesthetized with isoflurane (Isoba®vet, Shering-Plough Animal Health, Farum, Denmark) and buprenorfin (48 microg/kg, Temgesic, Shering-Plough, Brussels, Belgium) was given as post-operative pain reliever. A 5-cm-long midline incision of the abdomen was performed and a rectangle full thickness injury (5 mm×25 mm) was made on the peritoneal wall through both the parietal peritoneum and the muscular fascia. Also, an area of the serous membrane on the both sides of the cecum, approximately 10 mm×15 mm, was gently rubbed using cotton gauze until petechial hemorrhages appeared. The rats were randomized to untreated control group or treated groups. Excessive blood from the injury was removed and the test substance was applied over the abraded areas using a syringe. The laparotomy wound was closed with a continuous suture and the skin was closed with metal clips (Appose ULC35W, TycoHealthcare Group LP, Norwalk, Conn., US). […] The abdomen was opened and the adhesions were scored by an evaluator blinded to the treatment. The incidence of adhesions between abdominal incision and the abraded cecum was quantified as a percentage of animals developing wall to wall adhesions connecting these injuries, in each group. […] Finally, the percentage of rats free from any abdominal adhesions was assessed in each group. Any possible signs of peritoneal inflammation (erythema and/or edema) or disrupted wound healing were recorded in connection to the necropsies. […]

[2] = In vitro release of PXL01 from sodium hyaluronate gel; format: physicochemical; conditions: 6 mg/ml PXL01 in 1.5% sodium hyaluronate, 37° C., PBS pH 7.4, within 1 hour
Experimental: (§1) PXL01 dissolved in sodium chloride solution was added to 2.5% sodium hyaluronate solution at a volume ratio of 2/5 PXL01 solution and 3/5 sodium hyaluronate solution, to obtain 1.5 or 6 mg/ml PXL01 in 1.5% sodium hyaluronate. The solutions were homogenized by drawing the mixtures several times through 2.1 mm diameter needles.
0.25 ml of the formulated product was placed into the well of the tissue culture plate (24-Flat Well Tissue Culture Plate, Techno Plastic Products AG), resulting in a thin film of approximately 1.3 mm. The plates were placed into thermostat (37° C.) for 1 h to allow the product to reach the temperature of 37° C. 0.5 ml of the release medium (PBS, pH 7.4) re-equilibrated at 37° C. was carefully layered over the surface of the gel and the tissue culture plates were transferred into a thermostatic shaker (60 rpm, 37° C.). At predetermined time intervals, 10 microl aliquots of the aqueous solution were withdrawn from the release media. The concentration of PXL01 released was monitored at wavelength of 230 nm using a spectrophotometric measurement. Because the measurement of absorbance at 230 nm could detect the peptide as well as dissolved sodium hyaluronate in the release medium, a control release medium was used which has the same amount of sodium hyaluronate without any PXL01 as that of sodium hyaluronate with the drug.

[3] = Solubility and stability of PXL01 in sodium hyaluronate; format: physicochemical
Experimental: as §1
PXL01 concentration and homogeneity in sodium hyaluronate were determined by high performance liquid chromatography with UV detector (Agilent model 1100) at 220 nm. The analytical column used was a Vydac 218TP (C18, 5 μm, 250×4.6 mm). The mobile phases used (0.1% TFA in water containing 1% acetonitrile (solvent A) and 0.1% TFA in acetonitrile (solvent B)) were run at a gradient with a flow rate of 1.0 ml/min. Diluted PXL01 standards were applied to create calibration curves.
Samples were prepared by adding hyaluronidase solution (Hyaluronidase from Streptomyces hyalurolyticus, Sigma-Aldrich, St Louis, Mo.) with an enzyme activity of 500 units/ml to sample solutions. The mixtures were agitated for 2 h at room temperature and samples were diluted as needed with TFA in water, followed by additional mixing. The samples were centrifuged at 7000 rpm for 5 min before injection to the column.

PXL01 released from the sodium hyaluronate gel formulation (cumulative drug released) [2]: approximately 70% | solubility in sodium hyaluronate [3]: readily soluble | stability in sodium hyaluronate [3]: sufficiently stable
SMILES: CC[C@H](C)[C@H](NC(=O)[C@@H]1CSSC[C@H](NC(=O)[C@H](CCCCN)NC(=O)[C@@H](NC(=O)[C@H](C)NC(=O)[C@H](CCC(=O)O)NC(C)=O)[C@@H](C)O)C(=O)N[C@@H](Cc2ccccc2)C(=O)N[C@@H](CCC(N)=O)C(=O)N[C@@H](Cc2c[nH]c3ccccc23)C(=O)N[C@@H](CCC(N)=O)C(=O)N[C@@H](CCCNC(=N)N)C(=O)N[C@@H](CC(N)=O)C(=O)N[C@@H](CCSC)C(=O)N[C@@H](CCCNC(=N)N)C(=O)N[C@@H](CCCCN)C(=O)N[C@@H](C(C)C)C(=O)N[C@@H](CCCNC(=N)N)C(=O)NCC(=O)N2CCC[C@H]2C(=O)N2CCC[C@H]2C(=O)N[C@@H](C(C)C)C(=O)N[C@@H](CO)C(=O)N1)C(=O)N[C@@H](CCCCN)C(=O)N[C@@H](CCCNC(=N)N)C(N)=O [PXL01] (Ac-EATKCFQWQRNMRKVRGPPVSCIKR-NH2; disulfide 5-22)
adhesion formation compared with control group ([1]; 3 mg of PXL01 in water solution, single dose in connection to the surgery): No significant reduction | adhesion formation compared with control group ([1]; 3 doses of 1 mg of PXL01 in water solution (at operation, 24 and 48 h post-surgery)): marked reduction | adverse events (listlessness, peritoneal inflammation, inhibition of wound healing) ([1]; rats treated with PXL01 at any concentration): No obvious adverse events
